Test system: ammonia lateralization threshold
Assay: Panel evaluation of the lateralization threshold (LT) of ammonia alone and in combination with a PRM
Format: in vivo, panellists
Parameters: LT of ammonia Panellist 1 Cond II / LT of ammonia Panellist 2 Cond II / LT of ammonia Panellist 3 Cond II: unit not given here
Settings: for Ammonia LT Panellist 1 Cond II / Ammonia LT Panellist 2 Cond II / Ammonia LT Panellist 3 Cond II / Ammonia LT Panellist 1 % Δ / Ammonia LT Panellist 2 % Δ / Ammonia LT Panellist 3 % Δ: Table 3; for Ammonia LT Panellist 1 Cond II / Ammonia LT Panellist 2 Cond II / Ammonia LT Panellist 3 Cond II: ammonia stimulus combined with PRM stimulus (concentration of Table 2 in propylene glycol); for Ammonia LT Panellist 1 % Δ / Ammonia LT Panellist 2 % Δ / Ammonia LT Panellist 3 % Δ / LT of ammonia Panellist 1 %Δ / LT of ammonia Panellist 2 %Δ / LT of ammonia Panellist 3 %Δ: change of ammonia LT, Cond II (with PRM) vs Cond I (ammonia alone); for LT of ammonia Panellist 1 Cond II / LT of ammonia Panellist 2 Cond II / LT of ammonia Panellist 3 Cond II / LT of ammonia Panellist 1 %Δ / LT of ammonia Panellist 2 %Δ / LT of ammonia Panellist 3 %Δ: Table 4; for LT of ammonia Panellist 1 Cond II / LT of ammonia Panellist 2 Cond II / LT of ammonia Panellist 3 Cond II: ammonia stimulus combined with PRM stimulus
Method: An ammonia stimulus test range was prepared. To ensure a stable level of ammonia in each stimulus, the ammonia headspace was stabilized by combining appropriate concentrations of NH4Cl, NaOH and H2O instead of simply adding ammonia directly to a solvent. Different concentrations of ammonia were used to create a stimulus test range by utilizing the appropriate amount of each compound (see Table 1).
A stimulus was also prepared for each PRM which was intended to be combined with ammonia stimuli. As the PRMs differed in their potency and to ensure that each PRM stimulus had approximately the same potency, an abbreviated dose response curve was constructed for each PRM by having four panellists evaluate the intensity of five concentration levels of the PRM dissolved in propylene glycol in duplicate. Assessments were made relative to the reference of 170 ppm allyl heptanoate in propylene glycol, which intensity was set to 0. Based upon the average scores, a rough intensity match was made for each PRM utilizing one of the following criteria. If one of the tested concentration levels averaged at or near zero, this concentration level was selected. If the rating created any sort of reasonable curve, the equation of the curve was determined and solved for 0 to arrive at the PRM assessment level. If multiple concentration levels were equally distant form the match level, then the standard deviation across individuals was considered, as were the individual responses. In general, the PRM level was selected to be on average close to 0 with low variability, with two panellists saying the level was a bit too high and the other two panellists saying the level was a bit too low. The PRMs for which a stimulus was prepared are listed in Table 2 below, together with the concentration of the PRM in the stimulus.
Volunteers were screened for their ability to lateralize ammonia stimuli. For the screening, the experimenter measured the participant's lateralization threshold for ammonia using a two-alternative forced choice modified staircase procedure employing a four-in, two-down, one-up rule with a five reversal criterion, as described below, On each trial volunteers were presented with a pair of glass bottles with clean, custom-made nose pieces. One bottle contained ammonia at a particular level selected from Table 1 and the other bottle contained water only. Each bottle was applied to one nostril using the nose piece. The volunteers were asked to identify which bottle in each pair contained ammonia.
If the ammonia stimulus was correctly identified in four consecutive trials, the concentration was decreased by one level of Table 1 on the next trial. If an incorrect answer was provided, the concentration was increased by one level of Table 1. Location (left or right nostril) of the stimulus was randomized over presentations. Testing continued until one of the following occurred: • 1) Five reversals (correct decision followed by an incorrect decision or vice versa) were achieved; • 2) The volunteer gave a correct response twice in a row at the lowest level of Table 1; or • 3) The volunteer gave an incorrect response at the highest level of Table 1.
In the first circumstance, threshold values were then calculated by averaging the last four reversals. In the second circumstance, the LT was the lowest level. In the third circumstance, the LT could not be calculated. Volunteers were considered qualified to participate in the panel evaluation if their LT could be calculated (Circumstance 1).
The LT of ammonia, both alone and in combination with diverse PRM, was determined. A repeated-measures design was used, such that the LT with and without the addition of a PRM were both measured at the same time in one person by utilizing interwoven stimuli presentations. The LT for each PRM was measured by two to three panellists, the third panellists being included if the results of the first to panellists disagreed. […]

Compound | Ammonia LT Panellist 1 Cond II [ppm] | Ammonia LT Panellist 2 Cond II [ppm] | Ammonia LT Panellist 3 Cond II [ppm] | Ammonia LT Panellist 1 % Δ [%] | Ammonia LT Panellist 2 % Δ [%] | Ammonia LT Panellist 3 % Δ [%] | LT of ammonia Panellist 1 Cond II | LT of ammonia Panellist 2 Cond II | LT of ammonia Panellist 3 Cond II | LT of ammonia Panellist 1 %Δ [%] | LT of ammonia Panellist 2 %Δ [%] | LT of ammonia Panellist 3 %Δ [%]
CC1(C)CCCC2(C)C1CCC1(C)OCCC12 (stereo not shown) [Cetalox ®, Dodecahydro-3a,6,6,9a-tetramethyl-naphtho[2,1-b]furan] | 2.3 | 225.5 | 2.3 | −90 | 2988 | −68 | – | – | – | – | – | –
CC(OC=O)C1CCCC(C)(C)C1 (stereo not shown) [Aphermate] | 6.1 | 71.9 | – | −68 | −59 | – | – | – | – | – | – | –
C=CC(C)(O)CCC=C(C)C (stereo not shown) [Linalool] | 188.3 | 22.9 | 56.3 | 2480 | 0 | 214 | – | – | – | – | – | –
C[C@H]1[C@@H]2CC(C[C@@]13C=CC(=O)CC3)C2(C)C (single isomer, unassigned; (+)) | – | – | – | – | – | – | 0.4 | 0.6 | 0.6 | 75 | 417 | 215
CCCc1ccc(OC)cc1 [Dihydroestragole] | 7.3 | 71.9 | 22.9 | −62 | 28 | 214 | – | – | – | – | – | –
C=C1CCCC(C)(C)C1C(=O)/C=C/C (racemic) [Gamma damascone, (+−)-(E)-1-(2,2-dimethyl-6-methylene-1-cyclohexyl)-2-buten-1-one] | – | – | – | – | – | – | 6.3 | 19.6 | 11.1 | 214 | 885 | 456
Mixture of 3-(4-ethylphenyl)-2,2-dimethylpropanal and 3(2-ethylphenyl)-2,2-dimethylpropanal [Floralozone] | – | – | – | – | – | – | 2.0 | 6.3 | 3.5 | 895 | 214 | 77
CCCC(=O)OCC(C)C [Isopropylmethyl butyrate] | 188.4 | 188.3 | – | 81809 | 235 | – | – | – | – | – | – | –
CCOC(=O)C1CCC(C(=O)OCC)CC1 (stereo not shown) [Fructalate ®, Diethyl 1,4-cyclohexane dicarboxylate] | 56.3 | 188.3 | – | 194 | 214 | – | – | – | – | – | – | –
C=C1CCCC(C)(C)C1C(=O)OC (stereo not shown) [Romascone ®, Methyl 2,2-dimethyl-6-methylene-1-cyclohexanecarboxylate] | – | – | – | – | – | – | 11.1 | 2.0 | 6.3 | 1685 | 77 | 1686
CCCCOC(C)=O [Butyl acetate] | 7.3 | 225.5 | – | 213 | 1079 | – | – | – | – | – | – | –
CCCCC[C@@H]1C(=O)CC[C@@H]1CC(=O)OC [Paradisone ®, (+)-Methyl (1R)-cis-3-oxo-2-pentyl-1-cyclopentaneacetate] | 22.9 | 225.5 | 6.1 | 0 | 214 | −73 | – | – | – | – | – | –
CC(C=O)Cc1ccc(C(C)(C)C)cc1 (stereo not shown) [Lilial ®, 3-(4-Tert-butylphenyl)-2-methylpropanal] | 22.9 | 7.3 | 19.1 | 300 | −96 | 0 | – | – | – | – | – | –
CC(C)CCCC(C)CCO (stereo not shown) [3,7-Dimethyl-1-octanol] | – | – | – | – | – | – | 6.3 | 3.5 | 3.5 | 214 | 77 | 77
CCC=CCC=C/C=C/C(=O)OCC [Ethyl (2E)-2,4,7-decatrienoate] | – | – | – | – | – | – | 1.1 | 2.0 | 2.0 | 223 | 469 | 2743
CCC/C(C)=C\COC(C)=O [Aladinate ®, (Z)-3-methyl-2-hexenyl acetate] | 19.1 | 71.9 | – | −16 | 0 | – | – | – | – | – | – | –
C/C=C/C(=O)C1C(C)C=CCC1(C)C (stereo not shown) [Delta damascone ®, Delta damascone] | 7.3 | 225.5 | 7.3 | −68 | 214 | −96 | – | – | – | – | – | –
CC(C)=CCCC(C)CCO (stereo not shown) [Citronellol] | 60.0 | 225.5 | – | 2978 | 20 | – | – | – | – | – | – | –
CCOC(=O)C1=C(C)C=CCC1(C)C [Ethyl 2,6,6-trimethyl-1,3-cyclohexadiene-1-carboxylate] | – | – | – | – | – | – | 0.6 | 0.6 | 0.2 | 786 | 215 | 200
CC(C)CC1CC(C)(O)CCO1 (stereo not shown) [Florol ®, Tetrahydro-2-isobutyl-4-methyl-4(2H)-pyranol] | 56.3 | 7.3 | 22.9 | 146 | −62 | 0 | – | – | – | – | – | –
CC/C=C\CCO [(Z)-3-hexen-1-ol] | 2.3 | 225.5 | 56.3 | −68 | 0 | 671 | – | – | – | – | – | –
CCCOC(=O)[C@H](C)OC(C)(C)CC [Sclareolate ®, Propyl (S)-2-(1,1-dimethylpropoxy)propanoate] | – | – | – | – | – | – | 1.1 | 1.1 | 0.6 | 465 | 223 | −2
CC(C)=CCC/C(C)=C/CO [Geraniol] | 6.1 | 60.0 | – | −68 | −73 | – | – | – | – | – | – | –
COC(=O)c1ccccc1 [Methyl benzoate] | 7.3 | 60 | – | 213 | 162 | – | – | – | – | – | – | –
O=C1CCCCCCCCCCCCCCO1 [Exaltolide ®, Pentadecanolide] | 6.1 | 71.9 | – | 213 | 214 | – | – | – | – | – | – | –
CC1C(=O)O[C@H]2C[C@@H](C)CC[C@H]12 (mixture of isomers) [Koumalactone ®, (3aRS,6SR,7aSR)-perhydro-3,6-dimethyl-benzo[B]furan-2-one] | 19.1 | 71.9 | – | 162 | 214 | – | – | – | – | – | – | –

Source: US20130287721A1, “METHOD FOR COUNTERACTING AMMONIA MALODOR” (Firmenich SA, priority 2010, published 2013)
